Source: patent US6660835B1, “Lead substances and their use as therapeutics” (priority 1998, dated 2003)
Ends that are not written are not given here.

How the values were obtained:
[1] = tested on: S. epidermidis agr P3 promoter; conditions: peptide 200 nM; for Specific CAT activity: S. epidermidis, without peptide 12.5
[2] = tested on: S. aureus Newman; experiment: Exoprotein and surface-associated protein production, Tricine SDS-PAGE; conditions: 1 μM, 16 h culture
Method: FIG. 6: Influence of the S. epidermidis pheromone and its derivatives on the production of exoproteins and surface-associated proteins in S. aureus Newman. (A) Exoproteins: basic medium was inoculated with 1/100 vol. of a preculture of S. aureus Newman. At the same time, the pheromone or one of its derivatives was added at a concentration of 1 μM. The peptides were dissolved in DMSO (dimethylsulfoxide); a control received only DMSO. Culture filtrates (20 μl) of the cultures harvested after 16 h of growth were applied to Tricine SDS-PAGE and stained with Coomassie Blue. (B) Surface-associated proteins: pellets of the centrifuged 16 h cultures were dissolved in SDS-PAGE loading buffer containing 1% SDS, boiled at 1000C for 5 min, and applied to Tricine SDS-PAGE after removal of insoluble material by centrifugation. […] (SEQ ID NO: 17); (6) control (with DMSO); (7) molecular weight standards.
The effect of the synthetic cyclic peptides on the production pattern of surface-associated proteins and exoproteins was investigated (for Exoprotein analysis of S. epidermidis see Experimental procedures).
The synthetic cyclic peptides were added at a concentration of 1 μM to a culture that was inoculated by 1/100 vol. of a preculture; the cultures were incubated for 16 h. […]

Substance	Specific CAT activity [1] [U/mg protein]	effect on CAT activity [1]	surface-associated proteins synthesized ([2]; cell pellets)	reduction of exoprotein production ([2]; culture filtrate)
SVCASYF (not fully specified (bridges); also: thioester linkage to Cys3; listed as Staphylococcus epidermidis)	8.9			
SVc[CASYF]: S. epidermidis pheromone lacking the original aspartate residue at the N-terminus (SVXASYF; thiolactone cyclisation; VARIANT (3) C-terminal cyclyzed through thioester linkage to cystine residue 3; listed as Staphylococcus epidermidis)	16.1	very small stimulatory effect	synthesized in higher amounts	most pronounced
